Molecules are shown by their SMILES. “Also recorded” adds a separate entry of the source. Bounds are passed on as bounds.

The subject of test [1] is aged-impaired (AI) rats. Description: Radial Arm Maze (RAM) behavioral task, spatial memory retention. The format is in vivo, rat. As for the experimental part: […] RAM behavioral tasks were performed on eight AI rats. All five treatment conditions (vehicle and four dosage levels) were tested on all eight rats.
The RAM apparatus used consisted of eight equidistantly-spaced arms. An elevated maze arm (7 cm width×75 cm length) projected from each facet of an octagonal center platform (30 cm diameter, 51.5 cm height). Clear side walls on the arms were 10 cm high and were angled at […] to form a trough. A food well (4 cm diameter, 2 cm deep) was located at the distal end of each arm. Froot Loops™ (Kellogg Company) were used as rewards. Blocks constructed of Plexiglas™ (30 cm height×12 cm width) could be positioned to prevent entry to any arm. Numerous extra maze cues surrounding the apparatus were also provided.
The AI rats were initially subjected to a pre-training test (Chappell et al. Neuropharmacology 37: 481-487, 1998). The pre-training test consisted of a habituation phase (4 days), a training phase on the standard win-shift task (18 days) and another training phase (14 days) in which a brief delay was imposed between presentation of a subset of arms designated by the experimenter (e.g., 5 arms available and 3 arms blocked) and completion of the eight-arm win-shift task (i.e., with all eight arms available).
In the habituation phase, rats were familiarized to the maze for an 8-minute session on four consecutive days. In each of these sessions, food rewards were scattered on the RAM, initially on the center platform and arms and then progressively confined to the arms. After this habituation phase, a standard training protocol was used, in which a food pellet was located at the end of each arm. Rats received one trial each day for 18 days. Each daily trial terminated when all eight food pellets had been obtained or when either 16 choices were made, or 15 minutes had elapsed. After completion of this training phase, a second training phase was carried out in which the memory demand was increased by imposing a brief delay during the trial. At the beginning of each trial, three arms of the eight-arm maze were blocked. Rats were allowed to obtain food on the five arms to which access was permitted during this initial “information phase” of the trial. Rats were then removed from the maze for 60 seconds, during which time the barriers on the maze were removed, thus allowing access to all eight arms. Rats were then placed back onto the center platform and allowed to obtain the remaining food rewards during this “retention test” phase of the trial. The identity and configuration of the blocked arms varied across trials.
The number of “errors” the AI rats made during the retention test phase was tracked. […]

Test [2] addresses T1, GABAA α5 receptor (Rattus norvegicus, UniProt P19969).
T1 construct: from tissue; host or cells: rat brain in vivo; hippocampus versus cerebellum
Description: GABAA α5 receptor occupancy with Ro 15-4513 tracer. It is filed as in vivo, Long Evans rats. Conditions: for Ro 15-4513 binding in hippocampus / Ro 15-4513 levels/binding in cerebellum: 0.01-10 mg/kg; for % RO (L-655,708 Method): young Long Evans rats. The text has this:
Food and water were available ad libitum.

Test [3] addresses α5-containing GABAA R (Homo sapiens, UniProt P18507+P31644). The note with it: EC20; cited from earlier work.
Test [4] concerns aged-impaired (AI) rats. Description: Morris water maze behavioral task. Conditions: 100 μg ICV. The format is in vivo, rat. As for the experimental part: The effects of 6,6 dimethyl-3-(3-hydroxypropyl)thio-1-(thiazol-2-yl)-6,7-dihydro-2-benzothiophen-4(5H)-one on the in vivo spatial memory retention of aged-impaired (AI) rats were assessed in a Morris water maze behavioral task. A water maze is a pool surrounded with a novel set of patterns relative to the maze.
Cognitively impaired aged rats were implanted unilaterally with a cannula into the lateral ventricle. Stereotaxic coordinates were 1.0 mm posterior to bregma, 1.5 mm lateral to midline, and 3.5 mm ventral to the skull surface. After about a week of recovery, the rats were pre-trained in a water maze for 2 days (6 trials per day) to locate a submerged escape platform hidden underneath the surface of the pool, in which the escape platform location varied from day to day. No intracerebroventricular (ICV) infusion was given during pre-training.
After pre-training, rats received ICV infusion of either 100 μg 6,6 dimethyl-3-(3-hydroxypropyl)thio-1-(thiazol-2-yl)-6,7-dihydro-2-benzothiophen-4(5H)-one (n=6) in 5 μl DMSO or vehicle DMSO (n=5) 40 min prior to water maze training and testing. Training consisted of 8 trials per day for 2 days where the hidden escape platform remained in the same location. Rats were given 60 seconds to locate the platform with a 60 seconds inter-trial interval. The rats were given a probe test (120 seconds) 24 hr. after the end of training where the escape platform was removed. During the training, there were 4 blocks, where each block had 4 training trials.
During a test trial 24 hr after training, the escape platform was removed. The search/swim pattern of the rats was used to measure whether the rats remember where the escape platform was located during pre-trial training in order to test for the long-term memory of the rats. In this trial, “target annulus” is a designated area 1.5 times the size of the escape platform around the area where the platform was located during pre-trial training. “Opposite annulus” is a control area of the same size as the size of the target annulus, which is located opposite to the target annulus in the pool. If the rats had good long-term memory, they would tend to search in the area surrounding the location where the platform was during the pre-trial training (i.e., the “target” annulus; and not the “opposite” annulus). “Time in annulus” is the amount of time in seconds that the rat spent in the target or opposite annulus area. “Number (#) of crossings” in annulus is the number of times the rat swam across the target or opposite annulus area.

Where [5] appears, read: probe test 24 hr after training.

T1 sequence (P19969 32-464 limits assumed): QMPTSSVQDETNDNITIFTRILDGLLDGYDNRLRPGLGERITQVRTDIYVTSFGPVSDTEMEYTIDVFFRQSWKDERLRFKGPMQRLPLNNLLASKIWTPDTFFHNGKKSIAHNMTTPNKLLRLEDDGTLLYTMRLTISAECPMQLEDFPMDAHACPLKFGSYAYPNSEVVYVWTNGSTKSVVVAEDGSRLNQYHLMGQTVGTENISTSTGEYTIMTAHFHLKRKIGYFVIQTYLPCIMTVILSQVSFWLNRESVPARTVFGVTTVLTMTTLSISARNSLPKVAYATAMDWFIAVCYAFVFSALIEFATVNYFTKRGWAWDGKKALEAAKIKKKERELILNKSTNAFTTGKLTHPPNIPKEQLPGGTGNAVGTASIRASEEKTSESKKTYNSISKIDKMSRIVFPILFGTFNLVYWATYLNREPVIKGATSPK
α5-containing GABAA R, sequence (P31644 32-462): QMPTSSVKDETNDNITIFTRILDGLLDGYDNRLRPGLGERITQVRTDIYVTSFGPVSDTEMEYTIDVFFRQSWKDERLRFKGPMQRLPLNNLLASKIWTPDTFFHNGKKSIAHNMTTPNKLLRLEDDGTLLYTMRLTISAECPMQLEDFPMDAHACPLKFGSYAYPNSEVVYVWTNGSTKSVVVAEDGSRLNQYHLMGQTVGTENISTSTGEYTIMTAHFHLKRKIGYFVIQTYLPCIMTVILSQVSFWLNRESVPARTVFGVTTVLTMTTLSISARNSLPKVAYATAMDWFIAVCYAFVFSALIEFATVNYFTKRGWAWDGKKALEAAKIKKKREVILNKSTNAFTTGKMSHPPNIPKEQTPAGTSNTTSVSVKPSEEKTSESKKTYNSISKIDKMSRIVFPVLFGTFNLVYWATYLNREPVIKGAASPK
α5-containing GABAA R, sequence (P28472 26-473 partner): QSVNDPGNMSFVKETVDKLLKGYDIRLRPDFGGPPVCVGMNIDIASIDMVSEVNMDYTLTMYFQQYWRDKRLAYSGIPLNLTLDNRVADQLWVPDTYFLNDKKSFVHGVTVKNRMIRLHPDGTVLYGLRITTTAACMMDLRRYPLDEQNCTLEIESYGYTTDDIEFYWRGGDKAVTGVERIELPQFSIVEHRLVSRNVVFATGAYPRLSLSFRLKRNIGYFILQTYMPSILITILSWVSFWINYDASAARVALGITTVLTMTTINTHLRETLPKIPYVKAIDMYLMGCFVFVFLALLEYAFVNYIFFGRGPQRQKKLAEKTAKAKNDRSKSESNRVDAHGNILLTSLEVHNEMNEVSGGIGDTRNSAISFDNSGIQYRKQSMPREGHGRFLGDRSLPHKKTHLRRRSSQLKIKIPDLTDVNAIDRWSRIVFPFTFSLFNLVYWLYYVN
α5-containing GABAA R, sequence (P18507 40-475): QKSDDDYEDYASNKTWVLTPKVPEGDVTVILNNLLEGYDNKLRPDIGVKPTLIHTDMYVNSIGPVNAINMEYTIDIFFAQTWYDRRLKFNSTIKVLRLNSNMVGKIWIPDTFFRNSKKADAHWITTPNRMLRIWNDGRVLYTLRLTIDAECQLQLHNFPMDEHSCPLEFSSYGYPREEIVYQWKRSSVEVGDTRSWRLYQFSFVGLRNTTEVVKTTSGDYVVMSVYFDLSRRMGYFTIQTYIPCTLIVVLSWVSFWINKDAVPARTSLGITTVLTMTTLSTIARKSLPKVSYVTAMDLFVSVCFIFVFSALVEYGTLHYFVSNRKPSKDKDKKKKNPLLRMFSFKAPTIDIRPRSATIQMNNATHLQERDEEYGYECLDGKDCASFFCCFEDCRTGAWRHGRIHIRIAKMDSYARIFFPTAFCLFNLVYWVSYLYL

On to `CCOC(=O)c1ncn2c1Cn1c(C)nnc1-c1cc(OC)ccc1-2` [ethyl 3-methoxy-7-methyl-9H-benzo[f]imidazo[1,5-a][1,2,4]tri], for which the “memory performance relative to vehicle control” value in test [1] (3 mg/kg, four-hour delay) is on record as “significantly improved memory performance”. The “memory performance relative to vehicle control” value in test [1] (10 mg/kg, four-hour delay) was “significantly improved memory performance”. In addition, in test [2] (i.v.), the “Ro 15-4513 binding in hippocampus” value is “reduced Ro 15-4513 binding in hippocampus” and the “Ro 15-4513 levels/binding in cerebellum” value is on record as “without affecting cerebellum levels of Ro 15-4513”. Besides, the “GABAA α5 receptor occupancy” value in test [2] (10 mg/kg, i.v.) is above 90%.
Regarding `COC(=O)c1c(-c2ccccc2)cnnc1-c1ccccc1` [methyl 3,5-diphenylpyridazine-4-carboxylate], the “average no. of errors ± SEM, retention test” value in test [1] (3 mg/kg ip, two-hour delay) amounted to 1.31±0.40. Further, in test [1] (3 mg/kg ip, two-hour delay), the “memory performance relative to vehicle control” value is given as “significantly improved memory performance”. Besides, the “% RO (L-655,708 Method)” value in test [2] (0.01 mg/kg, i.v.) is given as 19.2%; in test [2] (0.1 mg/kg, i.v.) it was 16.4%; in test [2] (1 mg/kg, i.v.), 38.5%; in test [2] (10 mg/kg, i.v.), 110.0%. The “Ro 15-4513 binding in hippocampus” value in test [2] (i.v.) was “dose-dependently reduced Ro 15-4513 binding in hippocampus; also recorded: blocked the binding of Ro154513 in the hippocampus”. Also, the “Ro 15-4513 levels/binding in cerebellum” value in test [2] (i.v.) is “without affecting cerebellum levels of Ro 15-4513; also recorded: did not affect binding of Ro15413 in the cerebellum”. In test [2] (at exposures behaviorally active in aged-impaired rats, hippocampus), the “GABAA α5 receptors occupied” value was “about 32%”. Also, the “ED50 of receptor occupancy, ratio method” value in test [2] (i.v.) was 1.8 mg/kg. The same compound yielded a receptor occupancy at 10 mg/kg in test [2] (rat, iv, 10 mg/kg) above 90%. In test [3], the “α5 in vitro efficacy” value is reported as “+27”.
On to `CC1(C)CC(=O)c2c(SCCCO)sc(-c3nccs3)c2C1` [6,6 dimethyl-3-(3-hydroxypropyl)thio-1-(thiazol-2-yl)-6,7-dihydro-2-benzothiophen-4(5H)-one], for which, in test [4] (beginning of training (block 1)), the “time to find the escape platform” value is given as “about 24 seconds”. The “time to find the escape platform” value in test [4] (end of training (block 4)) is “about 9.6 seconds”. Also, in test [4] (setting [5]), the “number of crossings of target annulus compared to opposite annulus” value is “crossed the “target annulus” more often” and the “time in target annulus compared to opposite annulus” value is “spent significantly more time in the target annulus”.

The record behind these values is patent US20240132513A1, “BENZAZEPINE DERIVATIVES, COMPOSITIONS, AND METHODS FOR TREATING COGNITIVE IMPAIRMENT” (AGENEBIO, INC., priority 2022, published 2024).
